The supplement of paper PMC9938120

Legend:
Assay in all cases: drug sensitivity score (DSS3, normalised partial AUC of % inhibition dose-response) (DSS (score)); higher = more sensitive (stronger inhibition of viability); extreme values may be limits of the assay
FMOC02_1 = patient-derived low-grade serous ovarian cancer cells; settings: 72 h; library: FO5A; assay format: 2D, 384-well, CellTiter-Glo
Method in brief: (§1)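 Cells were dispensed onto 384-well flat clear-bottom plates already holding compounds at five concentrations over a 10,000-fold range, using patient-derived ovarian cancer cells at passage under 10. Incubation lasted 72 h at 37 °C in 5% CO2, after which CellTiter-Glo viability data were processed in Breeze. Higher drug sensitivity scores, each a partial area under the percent-inhibition dose-response curve divided by the log of the upper asymptote, mean more sensitive cells.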

FMOC02_2 = patient-derived low-grade serous ovarian cancer cells; settings: 72 h; library: FO5A; assay format: 2D, 384-well, CellTiter-Glo
Method in brief: as §1

FMOC02_3 = patient-derived low-grade serous ovarian cancer cells; settings: 72 h; library: FO5A; assay format: 2D, 384-well, CellTiter-Glo
Method in brief: as §1

FMOC03 = patient-derived mucinous ovarian cancer cells; settings: 72 h; library: FO5A; assay format: 2D, 384-well, CellTiter-Glo
Method in brief: as §1

FMOC04 = patient-derived high-grade serous ovarian cancer cells; settings: 72 h; library: FO5A; assay format: 2D, 384-well, CellTiter-Glo
Method in brief: as §1

FMOC06 = patient-derived mucinous ovarian cancer cells; settings: 72 h; library: FO5A; assay format: 2D, 384-well, CellTiter-Glo
Method in brief: as §1

FMOC09 = patient-derived high-grade serous ovarian cancer cells; settings: 72 h; library: FO5A; assay format: 2D, 384-well, CellTiter-Glo
Method in brief: as §1

FMOC11 = patient-derived high-grade serous ovarian cancer cells; settings: 72 h; library: FO5A; assay format: 2D, 384-well, CellTiter-Glo
Method in brief: as §1

FMOC14 = patient-derived high-grade serous ovarian cancer cells; settings: 72 h; library: FO5A; assay format: 2D, 384-well, CellTiter-Glo
Method in brief: as §1

FMOC17 = patient-derived low-grade serous ovarian cancer cells; settings: 72 h; library: FO5A; assay format: 2D, 384-well, CellTiter-Glo
Method in brief: as §1

FMOC22 = patient-derived mucinous ovarian cancer cells; settings: 72 h; library: FO5A; assay format: 2D, 384-well, CellTiter-Glo
Method in brief: as §1

FMOC24 = patient-derived high-grade serous ovarian cancer cells; settings: 72 h; library: FO5A; assay format: 2D, 384-well, CellTiter-Glo
Method in brief: as §1

FMOC25_1 = patient-derived low-grade serous ovarian cancer cells; settings: 72 h; library: FO4B; assay format: 2D, 384-well, CellTiter-Glo
Method in brief: as §1

FMOC25_2 = patient-derived low-grade serous ovarian cancer cells; settings: 72 h; library: FO5A; assay format: 2D, 384-well, CellTiter-Glo
Method in brief: as §1

FMOC27 = patient-derived low-grade serous ovarian cancer cells; settings: 72 h; library: FO5A; assay format: 2D, 384-well, CellTiter-Glo
Method in brief: as §1

FMOC28 = patient-derived low-grade serous ovarian cancer cells; settings: 72 h; library: FO5A; assay format: 2D, 384-well, CellTiter-Glo
Method in brief: as §1

Row | SMILES | drug sensitivity score (FMOC02_1) | drug sensitivity score (FMOC02_2) | drug sensitivity score (FMOC02_3) | drug sensitivity score (FMOC03) | drug sensitivity score (FMOC04) | drug sensitivity score (FMOC06) | drug sensitivity score (FMOC09) | drug sensitivity score (FMOC11) | drug sensitivity score (FMOC14) | drug sensitivity score (FMOC17) | drug sensitivity score (FMOC22) | drug sensitivity score (FMOC24) | drug sensitivity score (FMOC25_1) | drug sensitivity score (FMOC25_2) | drug sensitivity score (FMOC27) | drug sensitivity score (FMOC28)
1 | CCS(=O)(=O)N1CC(CC#N)(n2cc(-c3ncnc4[nH]ccc34)cn2)C1 [Baricitinib] | 0 | 0 | 0 | 0 | 0 | 0 | 0 | 0 | 0 | 0 | 0 | 0.05 | 0 | 0 | 0 | 0
2 | N#CC(c1ccnc(OCc2ccc(CN3CCOCC3)cc2)n1)c1nc2ccccc2s1 (configuration not stated) [Bentamapimod] | 1.1 | 0.9 | 1.7 | 2.8 | 0.4 | 2 | 2.9 | 3.2 | 2.3 | 4.2 | 2 | 5.8 | 0.7 | 1 | 0 | 3.8
3 | C=C(c1ccc(C(=O)O)cc1)c1cc2c(cc1C)C(C)(C)CCC2(C)C [Bexarotene] | 0 | 6 | 4.3 | 1.7 | 0 | 0 | 1.8 | 1.2 | 0 | 0.1 | 1.1 | 0.9 | 0.3 | 0 | 1.5 | 5.3
4 | CC(O)(CS(=O)(=O)c1ccc(F)cc1)C(=O)Nc1ccc(C#N)c(C(F)(F)F)c1 (configuration not stated) [Bicalutamide] | 0.1 | 0 | 0 | 0 | 0 | 1.1 | 0 | 0 | 0 | 0.9 | 0 | 0.85 | 0 | 0 | 0 | 0
5 | CCNC(=O)CCC/C=C\C[C@@H]1[C@@H](/C=C/[C@@H](O)CCc2ccccc2)[C@H](O)C[C@@H]1O [Bimatoprost] | 0 | 0 | 0 | 0 | 0 | 0 | 0 | 0 | 0 | 0 | 0 | 0 | 0 | 0 | 0 | 0
6 | Cn1cnc2c(F)c(Nc3ccc(Br)cc3F)c(C(=O)NOCCO)cc21 [Binimetinib] | 5.5 | 7.1 | 7.1 | 4.8 | 0 | 7.6 | 4.2 | 0 | 0 | 6 | 3.6 | 0 | 6.6 | 3.2 | 2.2 | 1.6
7 | Cc1c(N)nc([C@H](CC(N)=O)NC[C@H](N)C(N)=O)nc1C(=O)N[C@H](C(=O)N[C@H](C)[C@@H](O)[C@H](C)C(=O)N[C@H](C(=O)NCCc1nc(-c2nc(C(=O)NCCC[S+](C)C)cs2)cs1)[C@@H](C)O)[C@@H](OC1OC(CO)C(O)C(O)C1OC1OC(CO)C(O)C(OC(N)=O)C1O)c1cnc[nH]1 (some centres not stated) [Bleomycin] | 3.1 | 4.3 | 8.8 | 0.7 | 0 | 3.1 | 3.2 | 3.4 | 0.1 | 3.4 | 0.8 | 5.65 | 9 | 3.2 | 2.4 | 2.9
8 | Cc1cc2c(F)c(Oc3ncnn4cc(OC[C@@H](C)O)c(C)c34)ccc2[nH]1 [Brivanib] | 0 | 0 | 0 | 0 | 0 | 0 | 0 | 0 | 0 | 0 | 0 | 0 | 0 | 0 | 0 | 0
9 | CCC/C=C/C=C/C(=O)O[C@H]1/C(=C/C(=O)OC)C[C@H]2C[C@H]([C@@H](C)O)OC(=O)C[C@H](O)C[C@@H]3C[C@H](OC(C)=O)C(C)(C)[C@](O)(C[C@@H]4C/C(=C/C(=O)OC)C[C@H](/C=C/C(C)(C)[C@]1(O)O2)O4)O3 [Bryostatin 1] | 6.7 | 1.5 | 4.1 | 0 | 0.7 | 6.8 | 0.6 | 2.4 | 0 | 0 | 2.6 | 3.45 | 6.6 | 7.1 | 0.2 | 0.7
10 | O=C(O)CCCCC(CCSCc1ccccc1)SCc1ccccc1 (configuration not stated) [CPI-613] | 0 | 0 | 0 | 0 | 0 | 0 | 0 | 0 | 0 | 2.5 | 0 | 0 | 0 | 0 | 0 | 2.8
11 | COc1cc2nccc(Oc3ccc(NC(=O)C4(C(=O)Nc5ccc(F)cc5)CC4)cc3)c2cc1OC [Cabozantinib] | 1 | 0.1 | 0 | 0 | 0 | 0 | 0 | 0 | 0 | 0 | 0 | 4.45 | 0 | 0 | 0.8 | 0
12 | CCCCCOC(=O)Nc1nc(=O)n([C@@H]2O[C@H](C)[C@@H](O)[C@H]2O)cc1F [Capecitabine] | 0 | 0 | 0 | 0.4 | 1.95 | 0 | 0 | 0.1 | 0.7 | 0.5 | 2.5 | 0.6 | 0 | 0.7 | 0 | 0
13 | COc1cc2c(Oc3ccc4[nH]c(C)cc4c3F)ncnc2cc1OCCCN1CCCC1 [Cediranib] | 1.1 | 0.9 | 0 | 0 | 0 | 0.5 | 0 | 0.2 | 0 | 0.2 | 0 | 1.85 | 1.7 | 0 | 0 | 1
14 | Cc1ccc(-c2cc(C(F)(F)F)nn2-c2ccc(S(N)(=O)=O)cc2)cc1 [Celecoxib] | 0 | 0 | 0 | 0 | 0 | 0 | 0 | 0 | 0 | 0 | 0 | 0 | 0 | 0 | 0 | 0.3
15 | Cc1cc(Nc2ncc(Cl)c(Nc3ccccc3S(=O)(=O)C(C)C)n2)c(OC(C)C)cc1C1CCNCC1 [Ceritinib] | 2.6 | 4.2 | 4.3 | 1.5 | 3.15 | 3.7 | 3.1 | 0.5 | 0 | 2.4 | 1.7 | 0.35 | 0.6 | 4.8 | 2.2 | 0
16 | Nc1nc(Cl)nc2c1ncn2[C@H]1C[C@H](O)[C@@H](CO)O1 [Cladribine] | 7 | 3.3 | 4 | 0.5 | 0.2 | 0.2 | 1.8 | 0.8 | 0 | 0.4 | 3.9 | 0 | 2.4 | 7.2 | 2.3 | 0.3
17 | C[C@@H](Oc1cc(-c2cnn(C3CCNCC3)c2)cnc1N)c1c(Cl)ccc(F)c1Cl [Crizotinib] | 0.9 | 0.1 | 0 | 0 | 0.05 | 0 | 0 | 0 | 0 | 0 | 0 | 0.65 | 0 | 0.4 | 0 | 0
18 | CC(C)(C)c1nc(-c2cccc(NS(=O)(=O)c3c(F)cccc3F)c2F)c(-c2ccnc(N)n2)s1 [Dabrafenib] | 5.9 | 0.8 | 4.7 | 0 | 0 | 0 | 0 | 0 | 0 | 0.1 | 0 | 0 | 1.8 | 4 | 0 | 1.4
19 | CCN(CC)CCN(Cc1ccc(-c2ccc(C(F)(F)F)cc2)cc1)C(=O)Cn1c(SCc2ccc(F)cc2)nc(=O)c2c1CCC2 [Darapladib] | 0 | 0 | 1.6 | 0 | 0.25 | 0 | 0 | 0.1 | 1.3 | 0 | 0 | 4.2 | 0.1 | 0 | 0 | 1.2
20 | Nc1ncn([C@H]2C[C@H](O)[C@@H](CO)O2)c(=O)n1 [Decitabine] | 0.3 | 1.4 | 0.6 | 0 | 0 | 0.4 | 0 | 5.3 | 0 | 0.9 | 0.1 | 7.4 | 0 | 1.5 | 7.5 | 0
21 | CC(=O)N(O)CCCCCNC(=O)CCC(=O)N(O)CCCCCNC(=O)CCC(=O)N(O)CCCCCN [Deferoxamine] | 0 | 0 | 0.2 | 4.1 | 0 | 1.4 | 1.4 | 4.5 | 1.2 | 0 | 1.1 | 0 | 1.1 | 0 | 0 | 0
22 | C[C@@H]1C[C@H]2[C@@H]3CCC4=CC(=O)C=C[C@]4(C)[C@@]3(F)[C@@H](O)C[C@]2(C)[C@@]1(O)C(=O)CO [Dexamethasone] | 0 | 0 | 0 | 0 | 0 | 0 | 0 | 0 | 0 | 1.3 | 0 | 0 | 0 | 0 | 0 | 0
